Experimental data taken from patent publication US8691286B2, “Sputum dissolving suctioning solution for endotracheal and tracheostomy tubes” (Teleflex Medical Incorporated, priority 2009, dated 2014).

Assay: Effective concentration of glycerol (Example 2; sputum dried 4 hours, 15 minutes incubation in third cycle)
Design: species or system Human
Conditions: glycerol and dextran sulfate combination in 0.85% NaCl
Procedure: Test solutions containing different concentrations of glycerol and dextran sulfate (w/v) were prepared in 0.85% normal saline. All steps were performed at 37° C. unless specified otherwise. Each well of a 48 well microtitre plate was pre-wetted with a test solution for 2 hours. Human sputum (20 μl) was then allowed to dry for 2 hours on the pre-wetted surface, followed by incubation with 100 μl of the test solution for 15 minutes to dissolve the dried sputum, and subsequent removal of the solution. The complete cycle of sputum drying, incubation with the test solution and removal, was repeated three times. In the third and final cycle, the dried sputum was incubated with the test solution overnight instead of 15 minutes. Visual observations were recorded at each cycle and pictures were taken under a microscope.
Sputum was dried for 4 hours instead of 2 hours in each cycle, and in the third cycle dried sputum was incubated with the test solution for only 15 minutes instead of an overnight incubation.
All the test solutions contained 0.85% of NaCl.

Molecule	Most effective concentration range
OCC(O)CO [glycerol]	30-50%
dextran sulfate	10-20%
